Data from ChEMBL document CHEMBL1146233, “Modification of the ceramide moiety of isoglobotrihexosylceramide on its agonist activity in stimulation of invariant natural killer T cells” (J Med Chem, 2007).
Activity calls are given as the source filed them. No cut-off for these calls is given here.

How the values were obtained:
[1] = test system: iNKT; test: Stimulation of hCD1d-restricted human iNKT cells assessed as IL4 release at 10 ng/mL by ELISA; assay type: functional, cell-based
[2] = test system: iNKT; test: Stimulation of hCD1d-restricted human iNKT cells assessed as IFN-gamma release at 10 ng/mL by ELISA; assay type: functional, cell-based
[3] = Binding affinity to T cell receptor; assay type: cell-based, Homo sapiens

With `CCCCCCCCCCCCCCCCCCCCCCCCCC(=O)N[C@@H](CO[C@H]1O[C@H](CO)[C@H](O)[C@H](O)[C@H]1O)[C@H](O)[C@H](O)CCCCCCCCCCCCCC` [RGI-7000] the Activity [1] was “Active”, the Activity [2] was “Active” and the Kd [3] was 350 nM.
